This assay can be described thus: Inhibition of [3H]pentazocine binding to Sigma receptor type 1 in guinea pig brain membrane without cerebellum.

This passage reports Ki results from BindingDB's records for doi:10.1021/jm021014d (University of Bari Aldo Moro, 2003).

Counter-ions that a name gives are not always drawn.

`CC1CCN(C[C@H](C)COc2ccc(Cl)cc2)CC1` [1-[3-(4-Chloro-phenoxy)-2-methyl-propyl]-4-methyl-piperidine; hydrochloride]: the affinity, expressed as Ki, was 1.09 nM.
In the case of `CC1CCN([C@@H](C)COc2ccc(Cl)cc2)CC1` [1-[2-(4-Chloro-phenoxy)-1-methyl-ethyl]-4-methyl-piperidine; hydrochloride] it was 0.34 nM.
On to `C(/C=C/c1ccc2c(c1)OCO2)=C\CN1CCCCC1` [1-(5-Benzo[1,3]dioxol-5-yl-penta-2,4-dienyl)-piperidine], for which the affinity, expressed as Ki, was 0.86 nM.
With `CC1CCN([C@H](C)COc2ccc(Cl)cc2)CC1` [1-[2-(4-Chloro-phenoxy)-1-methyl-ethyl]-4-methyl-piperidine; hydrochloride] the figure was 1.18 nM.
For the compound `CC1CCN(C[C@@H](C)COc2ccc(Cl)cc2)CC1` [1-[3-(4-Chloro-phenoxy)-2-methyl-propyl]-4-methyl-piperidine; hydrochloride], the Ki (in general, a measure of affinity in units of concentration, obtained from inhibition or displacement) was 1.7 nM.
